Reference: PMC8241846, “Structure and lipid dynamics in the maintenance of lipid asymmetry inner membrane complex of A. baumannii” (Communications Biology, 2021)

How the values were obtained:
MlaBDEFab [1] = biological target: T1, MlaBDEFab (Acinetobacter baumannii, UniProt A0A4P2WWN2+V5V921+V5V9F4); assay: cryo-EM map, […] A (no model deposited); type: binding; details: protein mixed 1:1 with 20 mM nucleotide, pH 8.0, 0.025% DDM; same nucleotide site; EMD-11084 in Table 1
T1 construct: gene ttg2A; full mla operon expressed in E. coli BL21(DE3), Ni-NTA purified (tag not described), in DDM; C2 complex MlaF2-MlaE2-MlaD6-MlaB2 (about half of particles with one MlaB)

MlaBDEFab [2] = biological target: T1, MlaBDEFab; assay: cryo-EM structure, […] A; type: binding; details: Mg2+ seen in site; protein mixed 1:1 with 20 mM nucleotide, pH 8.0, 0.025% DDM; nucleotide site at MlaF/MlaE/MlaD interface (MlaF Lys55, Ser51, His211, Arg26); non-hydrolysable ATP analogue
[3] = biological target: MlaD of the A. baumannii MlaBDEF complex (MlaBDEFab) (Acinetobacter baumannii) (UniProt V5V921); assay: cryo-EM structure; single-particle cryo-EM of the purified MlaBDEFab complex in DDM; 20 mM Hepes (pH 7.0), 150 mM NaCl, 0.025% (w/v) DDM; with AppNHp (3.9 Å, atomic model), also apo (~4.2 Å) and with ADP (~4.4 Å)
[4] = biological target: MlaF of the A. baumannii MlaBDEF complex (MlaBDEFab) (Acinetobacter baumannii); assay: as above

**Q.** How did the “cryo-EM map, 4.43 A (no model deposited)” value (MlaBDEFab [1]) turn out when `Nc1ncnc2c1ncn2[C@@H]1O[C@H](COP(=O)(O)OP(=O)(O)O)[C@@H](O)[C@H]1O` [ADP] was run?
**A.** confirms the presence of nucleotide in the AppNHp and ADP maps

**Q.** `Nc1ncnc2c1ncn2[C@@H]1O[C@H](COP(=O)(O)OP(=O)(O)NP(=O)(O)O)[C@@H](O)[C@H]1O` [AppNHp] was tested. Which “cryo-EM structure, 3.92 A” value (MlaBDEFab [2]) did it give?
**A.** we observed clear density of the nucleotide and magnesium, within the MlaF binding pocket

**Q.** Which stoichiometry N [3] does the source give for “MlaD of the A. baumannii MlaBDEF complex (MlaBDEFab) (from UniProt V5V921 1-226) (natural protein)” here?
**A.** 6

B1: MlaB of the A. baumannii MlaBDEF complex (MlaBDEFab) (natural protein)
chain: MVQYLNQELVVSGKIDFENAEQQYQAGLAIIKKQTSFPLIVDLKQLEHGNTLALAVLVQWLRQTPQKSGLHFKNVPEKMLKIIQACHLQEDLHLV
**Q.** How did the percent of particles with MlaB bound to both MlaF [4] turn out when B1 was run?
**A.** 50%
